This is an account of results in ChEMBL document CHEMBL3132815, “Design, synthesis and activities of 4/5-acyl-2-aminoimidazolyl analogues of oroidin for biofilm inhibition” (Medchemcomm, 2013).

Converted amounts (≈) assume the structure as drawn.

Series [1] relates to Pseudomonas aeruginosa. Description: Antibiofilm activity against Pseudomonas aeruginosa PAO1 assessed as inhibition of biofilm formation. It counts as functional, organism-based.
Series [2] relates to Staphylococcus aureus. Description: Antibacterial activity against Staphylococcus aureus ATCC 35556 assessed as planktonic growth at 50 ug/ml. Format: organism-based.
Series [3] relates to Staphylococcus epidermidis. Description: Antibacterial activity against Staphylococcus epidermidis GTC 18972 assessed as planktonic growth at 50 ug/ml. It counts as organism-based.
Series [4] has as its system Staphylococcus epidermidis. The series can be described thus: Antibiofilm activity against Staphylococcus epidermidis 1457 assessed as inhibition of biofilm formation at 50 ug/ml. It counts as functional.
Series [5] concerns Pseudomonas aeruginosa. The series can be described thus: Antibiofilm activity against Pseudomonas aeruginosa PAO1 assessed as inhibition of biofilm formation at 50 ug/ml. Format: functional.
Series [6] has as its system Staphylococcus aureus. The series can be described thus: Antibiofilm activity against methicillin-resistant Staphylococcus aureus assessed as inhibition of biofilm formation at 50 ug/ml. It counts as functional.
Series [7] concerns Staphylococcus aureus. The series can be described thus: Antibacterial activity against methicillin-resistant Staphylococcus aureus assessed as planktonic growth at 50 ug/ml. It counts as organism-based. The settings on record: in vitro.
The test system of series [8] is Staphylococcus aureus. The series can be described thus: Antibacterial activity against methicillin-resistant Staphylococcus aureus 1094 assessed as planktonic growth at 50 ug/ml. It counts as organism-based.
In series [9] the test system is Staphylococcus aureus. The series can be described thus: Antibiofilm activity against methicillin-resistant Staphylococcus aureus 1094 assessed as inhibition of biofilm formation at 50 ug/ml. It counts as functional.
The subject of series [10] is Staphylococcus epidermidis. Description: Antibacterial activity against Staphylococcus epidermidis 1457 assessed as planktonic growth at 50 ug/ml. It counts as organism-based.
In series [11] the test system is Staphylococcus epidermidis. Description: Antibiofilm activity against Staphylococcus epidermidis GTC 18972 assessed as inhibition of biofilm formation at 50 ug/ml. Format: functional.
The test system of series [12] is Staphylococcus aureus. The series can be described thus: Antibiofilm activity against Staphylococcus aureus ATCC 35556 assessed as inhibition of biofilm formation at 50 ug/ml. It counts as functional.
Series [13] has as its system Pseudomonas aeruginosa. Description: Antibacterial activity against Pseudomonas aeruginosa PAO1 assessed as planktonic growth at 50 ug/ml. It counts as organism-based.
In series [14] the test system is Staphylococcus epidermidis. The series can be described thus: Antibiofilm activity against Staphylococcus epidermidis GTC 18972 assessed as inhibition of biofilm formation. Format: functional.
Series [15] can be described thus: Cytotoxicity against human HeLa cells. It counts as cell-based.
In series [16] the test system is Staphylococcus aureus. The series can be described thus: Antibiofilm activity against Staphylococcus aureus ATCC 35556 assessed as inhibition of biofilm formation. Format: functional.
The subject of series [17] is Staphylococcus epidermidis. The series can be described thus: Antibacterial activity against Staphylococcus epidermidis 1457 assessed as planktonic growth. It counts as organism-based.
Series [18] has as its system Pseudomonas aeruginosa. The series can be described thus: Antibacterial activity against Pseudomonas aeruginosa PAO1 assessed as planktonic growth. It counts as organism-based.
In series [19] the test system is Staphylococcus aureus. The series can be described thus: Antibacterial activity against Staphylococcus aureus ATCC 35556 assessed as planktonic growth. It counts as organism-based.
Series [20] deals with Staphylococcus epidermidis. Description: Antibacterial activity against Staphylococcus epidermidis GTC 18972 assessed as planktonic growth. Format: organism-based.
For series [21], the system named is Staphylococcus epidermidis. The series can be described thus: Antibiofilm activity against Staphylococcus epidermidis 1457 assessed as inhibition of biofilm formation. It counts as functional.
Series [22] relates to Staphylococcus aureus. Description: Antibiofilm activity against methicillin-resistant Staphylococcus aureus 1094 assessed as inhibition of biofilm formation. It counts as functional.
Series [23] deals with Staphylococcus aureus. The series can be described thus: Antibiofilm activity against Staphylococcus aureus assessed as inhibition of biofilm formation. Format: functional, organism-based.

The term IC50 denotes the concentration at which inhibition is half-maximal. One may read the inhibition as the relative decrease from the control value, in per cent. For the compound `Nc1nc(C(=O)CCNC(=O)c2cc(Br)c(Br)[nH]2)c[nH]1`, in the series on Pseudomonas aeruginosa [1] (Pseudomonas aeruginosa, PAO1), the IC50 turned out to be 60 µM. For the same compound, the Activity in the series with Staphylococcus aureus [2] is reported as -4.22%; in series [3] it was 9.62%; with Staphylococcus aureus [7], 1.56%; in the series on Staphylococcus aureus [8], 21.91%; in series [10], -13.68%; with Pseudomonas aeruginosa [13], 6.46%. Moreover, the inhibition at 50 µg/mL in series [4] is 17.8%; in the series on Pseudomonas aeruginosa [5], 4.13%; with Staphylococcus aureus [6], 28.3%; in the series on Staphylococcus aureus [9], -66%; in [11], 33.8%; in the series with Staphylococcus aureus [12] it was -0.94%.
Regarding `O=C(CN1C(=O)c2ccccc2C1=O)c1cnc2ncccn12`, the Activity in the series with Staphylococcus aureus [2] is -6.07%; in series [3], 29.67%; in the series with Staphylococcus aureus [7] it was 3.76%; with Staphylococcus aureus [8], 21.51%; in series [10], 11.1%; in the series on Pseudomonas aeruginosa [13] it was -0.69%. Moreover, the inhibition at 50 µg/mL in series [4] is 6.4%; in the series on Pseudomonas aeruginosa [5] it was -7.64%; with Staphylococcus aureus [6], -97.9%; with Staphylococcus aureus [9], -67.5%; in [11], 8.1%; with Staphylococcus aureus [12], -3.15%.
In the case of `O=C(CCN1C(=O)c2ccccc2C1=O)c1cnc2ncccn12`, the Activity with Staphylococcus aureus [2] is reported as 2.31%; in series [3], 23.58%; in the series on Staphylococcus aureus [7], 10.43%; in the series with Staphylococcus aureus [8], 15.94%; in series [10] it was 15.13%; with Pseudomonas aeruginosa [13], -16.12%. The inhibition at 50 µg/mL was 10.6% in series [4]; 23% with Pseudomonas aeruginosa [5]; 18.7% in the series with Staphylococcus aureus [6]; -53.2% with Staphylococcus aureus [9]; -11% in [11]; 6.92% in the series on Staphylococcus aureus [12].
`O=C(NCC(=O)c1cnc2ncccn12)c1cc(Br)c(Br)[nH]1`: the Activity with Staphylococcus aureus [2] is -4.3%; in [3] it was 19.25%; in the series with Staphylococcus aureus [7] it was 7.17%; in the series on Staphylococcus aureus [8], 18.43%; in [10], 13.8%; in the series with Pseudomonas aeruginosa [13], -15.25%. For the same compound, the inhibition at 50 µg/mL in series [4] is 6.17%; with Pseudomonas aeruginosa [5] it was 20.8%; in the series on Staphylococcus aureus [6] it was -119%; with Staphylococcus aureus [9], -13.9%; in [11], -2.59%; with Staphylococcus aureus [12], -5.8%.
For `O=C(NCC(=O)c1cnc2ncccn12)c1cc(Br)c[nH]1`, the Activity in the series on Staphylococcus aureus [2] is recorded as -3.86%; in [3], 19.25%; with Staphylococcus aureus [7], -6.08%; with Staphylococcus aureus [8] it was 16.74%; in [10], 13.47%; in the series with Pseudomonas aeruginosa [13], -6.55%. The inhibition at 50 µg/mL in series [4] is 7.83%; in the series on Pseudomonas aeruginosa [5], 27.4%; in the series on Staphylococcus aureus [6], -124%; in the series on Staphylococcus aureus [9], 7.07%; in series [11], -9.93%; in the series with Staphylococcus aureus [12], -8.17%.
On to `O=C(NCC(=O)c1cnc2ncccn12)c1ccc[nH]1`, for which the Activity in the series with Staphylococcus aureus [2] was -4.75%; in series [3] it was 17.02%; in the series on Staphylococcus aureus [7], 3.76%; with Staphylococcus aureus [8], 20.67%; in [10], 11.5%; in the series with Pseudomonas aeruginosa [13], 3.14%. Also, the inhibition at 50 µg/mL in series [4] is 7.6%; with Pseudomonas aeruginosa [5] it was 14.3%; in the series with Staphylococcus aureus [6], -119%; with Staphylococcus aureus [9], 2.15%; in series [11], -6.61%; in the series with Staphylococcus aureus [12], -5.94%.
For orientation: CC50 means the concentration that lowers cell viability or growth by half. Higher therefore signals better tolerance by the cells. Consider `Nc1ncc(C(=O)CCNC(=O)c2cc(Br)c[nH]2)[nH]1`, for which the MBIC is 25 µg/mL in [14], “>=100 ug ml-1” in the series with Pseudomonas aeruginosa [1], 50 µg/mL in the series with Staphylococcus aureus [16] and 25 µg/mL in series [21]. In series [15], the CC50 came to 86.4 µg/mL (≈ 265 µM). Moreover, the Activity in the series on Staphylococcus aureus [2] is recorded as 81.24%; in series [3], 86.77%; in the series on Staphylococcus aureus [7] it was 88.41%; in the series with Staphylococcus aureus [8] it was 88.88%; in [10], 85.98%; in the series on Pseudomonas aeruginosa [13] it was 32.69%. The MIC was 50 µg/mL (≈ 153 µM) in [17], “>= 100 ug ml-1” in the series with Pseudomonas aeruginosa [18], 50 µg/mL (≈ 153 µM) with Staphylococcus aureus [19] and 25 µg/mL (≈ 76.7 µM) in [20]. Further, the inhibition at 50 µg/mL in series [4] was found to be 98%; in the series with Pseudomonas aeruginosa [5], 29.6%; in the series with Staphylococcus aureus [6], 88.8%; in the series with Staphylococcus aureus [9], 85.5%; in series [11], 97.8%; with Staphylococcus aureus [12], 98%.
For the compound `Nc1ncc(C(=O)CCNC(=O)c2ccc[nH]2)[nH]1`, the MBIC came to 6.25 µg/mL in series [14]; 50 µg/mL in the series with Pseudomonas aeruginosa [1]; 12.5 µg/mL in the series on Staphylococcus aureus [22]; 6.25 µg/mL in the series with Staphylococcus aureus [16]; 6.25 µg/mL in series [21]. The compound further showed a CC50 in series [15] of 101 µg/mL (≈ 410 µM). Moreover, the Activity in the series with Staphylococcus aureus [2] turned out to be 79.94%; in [3], 81.99%; in the series with Staphylococcus aureus [7], 85.37%; in the series with Staphylococcus aureus [8], 86.98%; in series [10], 81.58%; in the series on Pseudomonas aeruginosa [13], 86.17%. In addition, the MIC in series [17] was found to be 12.5 µg/mL (≈ 50.6 µM); in the series on Pseudomonas aeruginosa [18], 50 µg/mL (≈ 202 µM); in the series on Staphylococcus aureus [19] it was 25 µg/mL (≈ 101 µM); in [20], 12.5 µg/mL (≈ 50.6 µM). Moreover, the inhibition at 50 µg/mL in series [4] is 98%; in the series with Pseudomonas aeruginosa [5], 92%; with Staphylococcus aureus [6] it was 88.4%; in the series with Staphylococcus aureus [9] it was 86.2%; in series [11], 97.8%; in the series with Staphylococcus aureus [12], 98.1%.
On to `Cl.Cl.NCCC(=O)c1cnc2ncccn12`, for which the Activity in the series with Staphylococcus aureus [2] is -3.3%; in series [3], 5.5%; in the series with Staphylococcus aureus [7] it was -12.6%; in the series with Staphylococcus aureus [8], -0.9%; in [10] it was 3.5%; in the series on Pseudomonas aeruginosa [13], 11.1%. Moreover, the inhibition at 50 µg/mL in series [4] was 33%; in the series with Pseudomonas aeruginosa [5], -1.5%; with Staphylococcus aureus [6] it was -10.6%; in the series on Staphylococcus aureus [9] it was -1.8%; in [11], 4.2%; with Staphylococcus aureus [12], 57.1%.
`Cl.Cl.NCC(=O)c1cnc2ncccn12`: the Activity is on record as 6.2% in the series with Staphylococcus aureus [2]; 6.4% in series [3]; 7.8% in the series on Staphylococcus aureus [7]; 2% with Staphylococcus aureus [8]; -0.6% in [10]; 28.8% in the series with Pseudomonas aeruginosa [13]. In addition, the inhibition at 50 µg/mL in series [4] was 0.9%; with Pseudomonas aeruginosa [5], 5.6%; in the series with Staphylococcus aureus [6], 4.3%; with Staphylococcus aureus [9], -30.2%; in series [11], 28.7%; in the series with Staphylococcus aureus [12] it was -5.1%.
Regarding `Nc1ncc(/C=C/CNC(=O)c2cc(Br)c(Br)[nH]2)[nH]1` [OROIDIN], the IC50 in the series with Staphylococcus aureus [23] turned out to be 166 µM.
